Results reported in ChEMBL document CHEMBL4715697, “Synthesis and biological activity of benzamide DNA minor groove binders” (2016).

What was measured:
Assay type in all cases: functional
SK-MEL-5 = assay: Growth inhibition of human SK-MEL-5 cells assessed as cell growth at 100 uM incubated for 48 hrs by sulforhodamine B assay relative to control; settings: read-out: Activity
TK-10 = assay: Growth inhibition of human TK-10 cells assessed as cell growth at 100 uM incubated for 48 hrs by sulforhodamine B assay relative to control; settings: read-out: Activity
CAKI-1 = assay: Growth inhibition of human CAKI-1 cells assessed as cell growth at 100 uM incubated for 48 hrs by sulforhodamine B assay relative to control; settings: read-out: Activity
HT-29 = assay: Growth inhibition of human HT-29 cells assessed as cell growth at 100 uM incubated for 48 hrs by sulforhodamine B assay relative to control; settings: read-out: Activity
HCC 2998 = assay: Growth inhibition of human HCC 2998 cells assessed as cell growth at 100 uM incubated for 48 hrs by sulforhodamine B assay relative to control; settings: read-out: Activity
NCI-H460 = assay: Growth inhibition of human NCI-H460 cells assessed as cell growth at 1 uM incubated for 48 hrs by sulforhodamine B assay relative to control; settings: read-out: Activity
NCI-H23 [1] = assay: Growth inhibition of human NCI-H23 cells incubated for 48 hrs by sulforhodamine B assay
NCI/ADR-RES = assay: Growth inhibition of human NCI/ADR-RES cells assessed as cell growth at 0.1 uM incubated for 48 hrs by sulforhodamine B assay relative to control; settings: read-out: Activity
A549 = assay: Growth inhibition of human A549/ATCC cells assessed as cell growth at 0.01 uM incubated for 48 hrs by sulforhodamine B assay relative to control; settings: read-out: Activity
NCI-H23 [2] = assay: Growth inhibition of human NCI-H23 cells assessed as cell growth at 0.01 uM incubated for 48 hrs by sulforhodamine B assay relative to control; settings: read-out: Activity
Hs-578T = assay: Growth inhibition of human Hs-578T cells assessed as cell growth at 0.01 uM incubated for 48 hrs by sulforhodamine B assay relative to control; settings: read-out: Activity
T47D = assay: Growth inhibition of human T47D cells assessed as cell growth at 0.01 uM incubated for 48 hrs by sulforhodamine B assay relative to control; settings: read-out: Activity
SK-MEL-28 [3] = assay: Growth inhibition of human SK-MEL-28 cells incubated for 48 hrs by sulforhodamine B assay
UACC-62 [4] = assay: Growth inhibition of human UACC-62 cells assessed as cell growth at 100 uM incubated for 48 hrs by sulforhodamine B assay relative to control; settings: read-out: Activity
NCI-H322M [5] = assay: Growth inhibition of human NCI-H322M cells assessed as cell growth at 100 uM incubated for 48 hrs by sulforhodamine B assay relative to control; settings: read-out: Activity
EKVX = assay: Growth inhibition of human EKVX cells assessed as cell growth at 100 uM incubated for 48 hrs by sulforhodamine B assay relative to control; settings: read-out: Activity
SK-MEL-28 [6] = assay: Growth inhibition of human SK-MEL-28 cells assessed as cell growth at 0.01 uM incubated for 48 hrs by sulforhodamine B assay relative to control; settings: read-out: Activity
COLO 205 [7] = assay: Growth inhibition of human COLO 205 cells assessed as cell growth at 1 uM incubated for 48 hrs by sulforhodamine B assay relative to control; settings: read-out: Activity
SK-OV-3 = assay: Growth inhibition of human SK-OV-3 cells assessed as cell growth at 0.1 uM incubated for 48 hrs by sulforhodamine B assay relative to control; settings: read-out: Activity
NCI-H322M [8] = assay: Growth inhibition of human NCI-H322M cells assessed as cell growth at 0.01 uM incubated for 48 hrs by sulforhodamine B assay relative to control; settings: read-out: Activity
RXF 393 = assay: Growth inhibition of human RXF 393 cells assessed as cell growth at 0.01 uM incubated for 48 hrs by sulforhodamine B assay relative to control; settings: read-out: Activity
NCI-H522 = assay: Growth inhibition of human NCI-H522 cells assessed as cell growth at 0.1 uM incubated for 48 hrs by sulforhodamine B assay relative to control; settings: read-out: Activity
MDA-MB-468 = assay: Growth inhibition of human MDA-MB-468 cells assessed as cell growth at 100 uM incubated for 48 hrs by sulforhodamine B assay relative to control; settings: read-out: Activity
M14 = assay: Growth inhibition of human M14 cells incubated for 48 hrs by sulforhodamine B assay
PC-3 = assay: Growth inhibition of human PC-3 cells assessed as cell growth at 1 uM incubated for 48 hrs by sulforhodamine B assay relative to control; settings: read-out: Activity
UACC-257 = assay: Growth inhibition of human UACC-257 cells assessed as cell growth at 100 uM incubated for 48 hrs by sulforhodamine B assay relative to control; settings: read-out: Activity
Malme-3M = assay: Growth inhibition of human Malme-3M cells incubated for 48 hrs by sulforhodamine B assay
HCT-116 = assay: Growth inhibition of human HCT-116 cells assessed as cell growth at 100 uM incubated for 48 hrs by sulforhodamine B assay relative to control; settings: read-out: Activity
OVCAR-3 = assay: Growth inhibition of human OVCAR-3 cells assessed as cell growth at 0.1 uM incubated for 48 hrs by sulforhodamine B assay relative to control; settings: read-out: Activity
ACHN = assay: Growth inhibition of human ACHN cells assessed as cell growth at 1 uM incubated for 48 hrs by sulforhodamine B assay relative to control; settings: read-out: Activity
UACC-62 [9] = assay: Growth inhibition of human UACC-62 cells incubated for 48 hrs by sulforhodamine B assay
U-251 = assay: Growth inhibition of human U-251 cells assessed as cell growth at 1 uM incubated for 48 hrs by sulforhodamine B assay relative to control; settings: read-out: Activity
OVCAR-8 = assay: Growth inhibition of human OVCAR-8 cells assessed as cell growth at 0.1 uM incubated for 48 hrs by sulforhodamine B assay relative to control; settings: read-out: Activity
NCI-H226 = assay: Growth inhibition of human NCI-H226 cells assessed as cell growth at 1 uM incubated for 48 hrs by sulforhodamine B assay relative to control; settings: read-out: Activity
COLO 205 [10] = assay: Growth inhibition of human COLO 205 cells incubated for 48 hrs by sulforhodamine B assay
[11] = read-out: LC50 (the source's name)
[12] = read-out: pLC50 (the source's name) (converted)

CC(=O)Nc1cc(CCl)cc(NC(=O)c2ccc(C(=O)Nc3cccc(NC(=O)CCCN(C)C)c3)cc2)c1
growth at 100 µM (SK-MEL-5): 75%
growth at 100 µM (TK-10): 129%
growth at 100 µM (CAKI-1): 100%
growth at 100 µM (HT-29): 51%
growth at 100 µM (HCC 2998): 93%
growth at 1 µM (NCI-H460): 109%
GI50 (NCI-H23 [1]; read-out: GI50): > 100 µM
CC50 (NCI-H23 [1]; [11]): > 100 µM
TGI (NCI-H23 [1]; read-out: TGI): > 100 µM
GI50 (NCI-H23 [1]; read-out: pGI50 (converted)): > 100 µM
CC50 (NCI-H23 [1]; [12]): > 100 µM
TGI (NCI-H23 [1]; read-out: pTGI): > 100 µM
growth at 0.1 µM (NCI/ADR-RES): 98%
growth at 0.01 µM (A549): 104%
growth at 0.01 µM (NCI-H23 [2]): 96%
growth at 0.01 µM (Hs-578T): 115%
growth at 0.01 µM (T47D): 106%
GI50 (SK-MEL-28 [3]; read-out: GI50): > 100 µM
LC50 (50% lethal concentration) (SK-MEL-28 [3]; read-out: LC50): > 100 µM
TGI (SK-MEL-28 [3]; read-out: TGI): > 100 µM
GI50 (SK-MEL-28 [3]; read-out: pGI50 (converted)): > 100 µM
LC50 (50% lethal concentration) (SK-MEL-28 [3]; read-out: pLC50 (converted)): > 100 µM
TGI (SK-MEL-28 [3]; read-out: pTGI): > 100 µM
growth at 100 µM (UACC-62 [4]): 84%
growth at 100 µM (NCI-H322M [5]): 103%
growth at 100 µM (EKVX): 84%
growth at 0.01 µM (SK-MEL-28 [6]): 98%
growth at 1 µM (COLO 205 [7]): 109%
growth at 0.1 µM (SK-OV-3): 103%
growth at 0.01 µM (NCI-H322M [8]): 106%
growth at 0.01 µM (RXF 393): 96%
growth at 0.1 µM (NCI-H522): 89%
growth at 100 µM (MDA-MB-468): 51%
GI50 (M14; read-out: GI50): > 100 µM
CC50 (M14; [11]): > 100 µM
TGI (M14; read-out: TGI): > 100 µM
GI50 (M14; read-out: pGI50 (converted)): > 100 µM
CC50 (M14; [12]): > 100 µM
TGI (M14; read-out: pTGI): > 100 µM
growth at 1 µM (PC-3): 103%
growth at 100 µM (UACC-257): 105%
GI50 (Malme-3M; read-out: GI50): > 100 µM
LC50 (concentration killing 50% of cells) (Malme-3M; read-out: LC50): > 100 µM
TGI (Malme-3M; read-out: TGI): > 100 µM
GI50 (Malme-3M; read-out: pGI50 (converted)): > 100 µM
LC50 (concentration killing 50% of cells) (Malme-3M; read-out: pLC50 (converted)): > 100 µM
TGI (Malme-3M; read-out: pTGI): > 100 µM
growth at 100 µM (HCT-116): 82%
growth at 0.1 µM (OVCAR-3): 108%
growth at 1 µM (ACHN): 96%
GI50 (UACC-62 [9]; read-out: GI50): > 100 µM
CC50 (UACC-62 [9]; [11]): > 100 µM
TGI (UACC-62 [9]; read-out: TGI): > 100 µM
GI50 (UACC-62 [9]; read-out: pGI50 (converted)): > 100 µM
CC50 (UACC-62 [9]; [12]): > 100 µM
TGI (UACC-62 [9]; read-out: pTGI): > 100 µM
growth at 1 µM (U-251): 93%
growth at 0.1 µM (OVCAR-8): 97%
growth at 1 µM (NCI-H226): 91%
GI50 (COLO 205 [10]; read-out: GI50): > 100 µM
LC50 (COLO 205 [10]; read-out: LC50): > 100 µM
TGI (COLO 205 [10]; read-out: TGI): > 100 µM
GI50 (COLO 205 [10]; read-out: pGI50 (converted)): > 100 µM
LC50 (COLO 205 [10]; read-out: pLC50 (converted)): > 100 µM
TGI (COLO 205 [10]; read-out: pTGI): > 100 µM
